# Measured values published in patent US7691863B2, “Pyrazine-2-carboxamide derivatives as CB2 receptor modulators” (Hoffman-La Roche Inc., priority 2006, dated 2010).
# Biological target: T1, human cannabinoid CB2 receptor (Homo sapiens, UniProt P34972)
# T1 construct: expressed in transfected cells; host or cells: human embryonic kidney (HEK) cells, transient, Semliki Forest virus system
# Assay: Affinity for cannabinoid CB2 receptors, [3H]-CP-55,940 radioligand binding on membrane preparations of transfected HEK cells
# Conditions: [3H]-CP-55,940 as radioligand, HEK cell membranes
# Description: The affinity of the compounds of the invention for cannabinoid CB2 receptors was determined using membrane preparations of human embryonic kidney (HEK) cells in which the human cannabinoid CB2 receptor is transiently transfected using the Semliki Forest virus system in conjunction with [3H]-CP-55,940 as radioligand. After incubation of a cell membrane preparation with the [3H]-ligand, with or without addition of compounds of the invention, separation of bound and free ligand was performed by filtration over glassfiber filters. Radioactivity on the filter was measured by liquid scintillation counting.
# T1 sequence (P34972 whole entry): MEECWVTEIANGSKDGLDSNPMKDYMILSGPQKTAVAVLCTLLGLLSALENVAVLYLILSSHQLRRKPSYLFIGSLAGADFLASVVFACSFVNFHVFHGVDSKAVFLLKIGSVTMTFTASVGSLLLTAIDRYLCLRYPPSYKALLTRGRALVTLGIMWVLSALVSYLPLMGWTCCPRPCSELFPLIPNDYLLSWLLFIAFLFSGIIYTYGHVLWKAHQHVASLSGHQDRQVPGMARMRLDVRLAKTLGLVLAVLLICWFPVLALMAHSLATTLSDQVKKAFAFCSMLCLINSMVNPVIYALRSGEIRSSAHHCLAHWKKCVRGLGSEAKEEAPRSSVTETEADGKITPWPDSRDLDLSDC
row,Compound,Ki [µM]
1,"2-Ethyl-2-{[5-pyrrolidin-1-yl-6-(2,2,2-trifluoro-ethoxy)-pyrazine-2-carbonyl]-amino}-pentanoic acid methyl ester [Example 14]",0.063
2,6-Cyclopropylmethoxy-5-pyrrolidin-1-yl-pyrazine-2-carboxylic acid ((S)-1-hydroxymethyl-3-methyl-butyl)-amide [Example 4],0.044
3,"CC(C)C[C@@H](CO)NC(=O)c1cnc(OCC2CC2)c(N2CCCCC2)n1 [Example 44, 5-Cyclopropylmethoxy-6-piperidin-1-yl-pyrazine-2-carboxylic acid ((S)-1-hydroxymethyl-3-methyl-butyl)-amide]",0.043
